The values below are quoted from earlier work in patent US10351593B2, “Derivatives of dolastatin 10 and uses thereof” (NewBio Therapeutics, Inc., priority 2015, dated 2019).

For the data set, the system named is human carcinoma lines.

A word on the IC50: it is the concentration that inhibits the measured activity by half. Consider `COc1cccc2c1C(=O)c1c(O)c3c(c(O)c1C2=O)C[C@@](O)(C(=O)CO)C[C@@H]3O[C@H]1C[C@H](N)[C@H](O)[C@H](C)O1` [doxorubicin], for which the IC50 is 100 to 200 nM.
